Measured values reported in US9828374B2, “Substituted pyrazino[2,2-a]isoquinoline derivatives” (Hoffmann-La Roche Inc., priority 2014, dated 2017).

Experiments:
[1] = target: mouse TAAR1 (Mus musculus (Mouse), UniProt Q923Y8); assay: Radioligand binding assay on mouse TAAR1; conditions: mouse TAAR1, HEK-293 membranes; first value of the mouse/rat pair
Protocol: (§1) Construction of TAAR Expression Plasmids and Stably Transfected Cell Lines
(§2) For the construction of expression plasmids the coding sequences of human, rat and mouse TAAR 1 were amplified from genomic DNA essentially as described by Lindemann et al..
(§3) The Expand High Fidelity PCR System (Roche Diagnostics) was used with 1.5 mM Mg^2+ and purified PCR products were cloned into pCR2.1-TOPO cloning vector (Invitrogen) following the instructions of the manufacturer. PCR products were subcloned into the pIRESneo2 vector (BD Clontech, Palo Alto, Calif.), and expression vectors were sequence verified before introduction in cell lines.
(§4) HEK293 cells (ATCC # CRL-1573) were cultured essentially as described by Lindemann et al. (2005). For the generation of stably transfected cell lines HEK293 cells were transfected with the pIRESneo2 expression plasmids containing the TAAR coding sequences (described above) with Lipofectamine 2000 (Invitrogen) according to the instructions of the manufacturer, and 24 hrs post transfection the culture medium was supplemented with 1 mg/ml G418 (Sigma, Buchs, Switzerland). After a culture period of about 10 d clones were isolated, expanded and tested for responsiveness to trace amines (all compounds purchased from Sigma) with the cAMP Biotrak Enzyme immunoassay (EIA) System (Amersham) following the non-acetylation EIA procedure provided by the manufacturer.
Radioligand Binding Assay on Mouse TAAR1
(§5) Membrane Preparation and Radioligand Binding.
(§6) HEK-293 cells stably expressing mouse TAAR1 were maintained at 37° C. and 5% CO2 in DMEM high glucose medium, containing fetal calf serum (10%, heat inactivated for 30 min at 56° C.), penicillin/streptomycin (1%), and 375 μg/ml geneticin (Gibco). Cells were released from culture flasks using trypsin/EDTA, harvested, washed twice with ice-cold PBS (without Ca^2+ and Mg^2+), pelleted at 1,000 rpm for 5 min at 4° C., frozen and stored at −80° C. Frozen pellets were suspended in 20 ml HEPES-NaOH (20 mM, pH 7.4) containing 10 mM EDTA and homogenized with a Polytron (PT 6000, Kinematica) at 14,000 rpm for 20 s. The homogenate was centrifuged at 48,000×g for 30 min at 4° C. Subsequently, the supernatant was removed and discarded, and the pellet resuspended in 20 ml HEPES-NaOH (20 mM, pH 7.4) containing 0.1 mM EDTA using the Polytron (20 s at 14,000 rpm). This procedure was repeated and the final pellet resuspended in HEPES-NaOH containing 0.1 mM EDTA and homogenized using the Polytron. Typically, aliquots of 2 ml membrane portions were stored at −80° C. With each new membrane batch the dissociation constant (Kd) was determined via a saturation curve. […] Nonspecific binding was defined as the amount of ^3[H]-(S)-4-[(ethyl-phenyl-amino)-methyl]-4,5-dihydro-oxazol-2-ylamine bound in the presence of 10 μM unlabeled ligand. All compounds were tested at a broad range of concentrations (10 pM to 10 μM) in duplicates. […] The 96 deep well plates were incubated for 1 hr at 4° C. Incubations were terminated by rapid filtration through Unifilter-96 plates (Packard Instrument Company) and glass filters GF/C (Perkin Elmer) presoaked for 1 hr in polyethylenimine (0.3%) and washed 3 times with 1 ml of cold binding buffer. After addition of 45 μl of Microscint 40 (PerkinElmer) the Unifilter-96 plate was sealed and after 1 hr the radioactivity counted using a TopCount Microplate Scintillation Counter (Packard Instrument Company).

[2] = target: rat TAAR1 (Rattus norvegicus (Rat), UniProt Q923Y9); assay: Radioligand binding assay on rat TAAR1; conditions: rat TAAR1, HEK-293 membranes; second value of the mouse/rat pair
rat TAAR1, sequence (Q923Y9 whole entry): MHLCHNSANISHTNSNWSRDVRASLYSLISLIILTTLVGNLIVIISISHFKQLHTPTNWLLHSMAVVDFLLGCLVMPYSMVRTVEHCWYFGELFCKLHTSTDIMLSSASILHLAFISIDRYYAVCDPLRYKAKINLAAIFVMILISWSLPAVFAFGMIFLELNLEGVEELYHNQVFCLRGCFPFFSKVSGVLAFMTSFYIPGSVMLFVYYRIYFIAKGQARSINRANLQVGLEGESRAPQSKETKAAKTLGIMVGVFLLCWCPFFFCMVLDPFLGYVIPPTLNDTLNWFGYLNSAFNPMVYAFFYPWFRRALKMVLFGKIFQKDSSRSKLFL
Protocol: as §1, §2, §3, §4
Radioligand Binding Assay on Rat TAAR1
as §5
as §6, with “rat” for “mouse”, “[H]-(S)-4-[(ethyl-phenyl-amino)-methyl]-4,5-dihydro-oxazol-2-ylamine” for “^3[H]-(S)-4-[(ethyl-phenyl-amino)-methyl]-4,5-dihydro-oxazol-2-ylamine”, “[…]” for “pM”

mouse TAAR1, sequence (Q923Y8 whole entry): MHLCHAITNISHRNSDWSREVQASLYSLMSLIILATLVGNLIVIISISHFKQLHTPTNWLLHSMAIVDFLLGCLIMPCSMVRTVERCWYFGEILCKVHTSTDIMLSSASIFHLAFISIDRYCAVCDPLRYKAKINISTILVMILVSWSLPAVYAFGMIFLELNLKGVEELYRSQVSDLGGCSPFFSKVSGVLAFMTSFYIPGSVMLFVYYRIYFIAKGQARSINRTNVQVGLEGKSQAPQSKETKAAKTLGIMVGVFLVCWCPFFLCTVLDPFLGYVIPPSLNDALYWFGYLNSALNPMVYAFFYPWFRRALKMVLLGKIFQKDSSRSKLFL

| Compound | Ki [1] | Ki [2] |
| --- | --- | --- |
| O=C(Nc1ccc2c(c1)CCN1CCNC[C@H]21)c1cnc(C(F)(F)F)nc1 [Example 10, N-[(11bS)-2,3,4,6,7,11b-hexahydro-1H-pyrazino[2,1-a]isoquinolin-9-yl]-2-(trifluoromethyl)pyrimidine-5-carboxamide] | 0.189 µM | 0.191 µM |
| CCc1ccc2c(c1)CCN1CCNC[C@@H]21 [Example 27, (11bR)-9-ethyl-2,3,4,6,7,11b-hexahydro-1H-pyrazino[2,1-a]isoquinoline] | 0.266 µM | 0.288 µM |
| O=C(Nc1ccc2c(c1)CCN1CCNC[C@H]21)c1ccc(Cl)cc1 [Example 8, N-[(11bS)-2,3,4,6,7,11b-hexahydro-1H-pyrazino[2,1-a]isoquinolin-9-yl]-4-chloro-benzamide] | 0.0075 µM | 0.0063 µM |
| Fc1cccc2c1CCN1CCNC[C@@H]21 [Example 30, (11bR)-8-fluoro-2,3,4,6,7,11b-hexahydro-1H-pyrazino[2,1-a]isoquinoline] | 0.176 µM | 0.201 µM |
| Cc1cc(Nc2ccc3c(c2)CCN2CCNC[C@@H]32)nc(C)n1 [Example 23, (11bR)-N-(2,6-dimethylpyrimidin-4-yl)-2,3,4,6,7,11b-hexahydro-1H-pyrazino[2,1-a]isoquinolin-9-amine] | 0.165 µM | 0.457 µM |
| c1cnc(Nc2ccc3c(c2)CCN2CCNC[C@@H]32)nc1 [Example 22, (11bR)-N-pyrimidin-2-yl-2,3,4,6,7,11b-hexahydro-1H-pyrazino[2,1-a]isoquinolin-9-amine] | 0.537 µM | 3.92 µM |
| FC(F)(F)c1nc(Cl)cc(Nc2ccc3c(c2)CCN2CCNC[C@@H]32)n1 [Example 21, (11bR)-N-[6-chloro-2-(trifluoromethyl)pyrimidin-4-yl]-2,3,4,6,7,11b-hexahydro-1H-pyrazino[2,1-a]isoquinolin-9-amine] | 0.0264 µM | 0.0134 µM |
| O=C(Nc1ccc(C(F)(F)F)cc1)Nc1ccc2c(c1)CCN1CCNC[C@@H]21 [Example 35, (R)-1-(2,3,4,6,7,11b-hexahydro-1H-pyrazino[2,1-a]isoquinolin-9-yl)-3-(4-(trifluoromethyl)phenyl)urea] | 0.0025 µM | 0.0012 µM |
| COc1ccc(NC(=O)Nc2ccc3c(c2)CCN2CCNC[C@@H]32)cc1 [Example 36, (R)-1-(2,3,4,6,7,11b-hexahydro-1H-pyrazino[2,1-a]isoquinolin-9-yl)-3-(4-methoxyphenyl)urea] | 0.0101 µM | 0.023 µM |
| c1cc2c(cc1Nc1ncc(C3CC3)cn1)CCN1CCNC[C@@H]21 [Example 14, (11bR)-N-(5-cyclopropylpyrimidin-2-yl)-2,3,4,6,7,11b-hexahydro-1H-pyrazino[2,1-a]isoquinolin-9-amine] | 0.0066 µM | 0.0192 µM |
| O=C(Nc1ccc(Cl)nc1)c1ccc2c(c1)CCN1CCNC[C@@H]21 [Example 42, (11bR)-N-(6-chloro-3-pyridyl)-2,3,4,6,7,11b-hexahydro-1H-pyrazino[2,1-a]isoquinoline-9-carboxamide] | 0.0395 µM | 0.682 µM |
| O=C(Nc1cnc(Cl)nc1)c1ccc2c(c1)CCN1CCNC[C@@H]21 [Example 46, (11bR)-N-(2-chloropyrimidin-5-yl)-2,3,4,6,7,11b-hexahydro-1H-pyrazino[2,1-a]isoquinoline-9-carboxamide] | 0.309 µM | > 1.5 µM |
| Fc1c(Nc2cc(Cl)nc(C(F)(F)F)n2)ccc2c1CCN1CCNC[C@H]21 [Example 31, (11bS)-N-[6-chloro-2-(trifluoromethyl)pyrimidin-4-yl]-8-fluoro-2,3,4,6,7,11b-hexahydro-1H-pyrazino[2,1-a]isoquinolin-9-amine] | 0.835 µM | 1.73 µM |
| CN(C)c1cc(Nc2ccc3c(c2)CCN2CCNC[C@@H]32)nc(C(F)(F)F)n1 [Example 19, N4-[(11bR)-2,3,4,6,7,11b-hexahydro-1H-pyrazino[2,1-a]isoquinolin-9-yl]-N6,N6-dimethyl-2-(trifluoromethyl)pyrimidine-4,6-diamine] | 0.0231 µM | 0.0076 µM |
| O=C(Nc1cc2c(cc1F)[C@@H]1CNCCN1CC2)c1ccnc(C(F)(F)F)c1 [Example 16, N-[(11bR)-10-fluoro-2,3,4,6,7,11b-hexahydro-1H-pyrazino[2,1-a]isoquinolin-9-yl]-2-(trifluoromethyl)pyridine-4-carboxamide] | 0.175 µM | 1.5 µM |
| Nc1ccc2c(c1)CCN1CCNC[C@@H]21 [Example 47, (11bR)-2,3,4,6,7,11b-hexahydro-1H-pyrazino[2,1-a]isoquinolin-9-amine] | 1.1 µM | > 1.5 µM |
| Cc1nsc(Nc2ccc3c(c2)CCN2CCNC[C@@H]32)n1 [Example 40, (R)-N-(2,3,4,6,7,11b-hexahydro-1H-pyrazino[2,1-a]isoquinolin-9-yl)-3-methyl-1,2,4-thiadiazol-5-amine] | 0.202 µM | 0.826 µM |
| Fc1cc2c(cc1Nc1ncc(C(F)(F)F)cn1)CCN1CCNC[C@@H]21 [Example 17, (11bR)-10-fluoro-N-[5-(trifluoromethyl)pyrimidin-2-yl]-2,3,4,6,7,11b-hexahydro-1H-pyrazino[2,1-a]isoquinolin-9-amine] | 0.261 µM | 0.623 µM |
| c1cc2c(cc1Nc1nc(C3CC3)no1)CCN1CCNC[C@@H]21 [Example 37, N-[(11R)-2,3,4,6,7,11-hexahydro-1H-pyrazino[2,1-a]isoquinolin-9-yl]-3-cyclopropyl-1,2,4-oxadiazol-5-amine] | 0.0347 µM | 0.198 µM |
| Cc1ccc2c(c1)CCN1CCNC[C@@H]21 [Example 28, (11bR)-9-methyl-2,3,4,6,7,11b-hexahydro-1H-pyrazino[2,1-a]isoquinoline] | 0.29 µM | 0.421 µM |
| FC(F)(F)COc1cnc(Nc2ccc3c(c2)CCN2CCNC[C@@H]32)nc1 [Example 13, (R)-N-(5-(2,2,2-trifluoroethoxy)pyrimidin-2-yl)-2,3,4,6,7,11b-hexahydro-1H-pyrazino[2,1-a]isoquinolin-9-amine] | 0.0078 µM | 0.0119 µM |
| c1ccc2c(c1)CCN1CCNC[C@@H]21 [Example 15, (11bR)-2,3,4,6,7,11b-hexahydro-1H-pyrazino[2,1-a]isoquinoline] | 0.0605 µM | 0.248 µM |
